Among the data in patent US20040002493A1, “Benzoic acid derivatives and pharmaceutical agents comprising the same as active ingredient” (priority 2000, published 2004) are Ki values, retold here.

Assay in all cases: Binding assay using cell expressing the prostanoid receptor subtypes, [3H]-PGE2 competition on CHO membrane fraction
One assay concerns the target T1, EP1 receptor (Mus musculus, UniProt P35375).
T1 construct: expressed in transfected cells; host or cells: CHO cells
T1 sequence (P35375 1-405): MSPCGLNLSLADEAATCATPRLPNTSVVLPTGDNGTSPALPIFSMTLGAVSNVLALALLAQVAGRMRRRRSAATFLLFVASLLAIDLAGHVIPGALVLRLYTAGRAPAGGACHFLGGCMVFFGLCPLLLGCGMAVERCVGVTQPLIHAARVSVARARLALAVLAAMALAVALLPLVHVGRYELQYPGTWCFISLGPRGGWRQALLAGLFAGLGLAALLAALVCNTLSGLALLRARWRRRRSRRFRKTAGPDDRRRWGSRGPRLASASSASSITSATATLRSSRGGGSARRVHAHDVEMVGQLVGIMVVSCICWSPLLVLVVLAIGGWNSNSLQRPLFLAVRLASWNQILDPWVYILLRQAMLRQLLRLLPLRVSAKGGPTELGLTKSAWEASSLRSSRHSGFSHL
The settings on record: mouse EP1, [3H]-PGE2 2.5 nM, pH 6.0. As to the method:
(§1) (i) Binding Assay Using Cell Expressing the Prostanoid Receptor Subtypes
(§2) The preparation of membrane fraction was carried out according to the method of Sugimoto et al [J. Biol. Chem. 267, 6463-6466 (1992)], using CHO cell expressing prostanoid receptor subtypes (mouse EP1, EP2, EP3α, and EP4).
(§3) The standard assay mixture containing membrane fraction (50 μL), [^3H]-PGE2 in a final volume of 150 μL was incubated for 1 hour at room temperature. The reaction was terminated by addition of 3 mL of ice-cold buffer. The mixture was rapidly filtered through a glass filter (GF/B) under reduced pressure. The radioactivities associated with the filters were measured by liquid scintillation counter.
(§4) Kd and Bmax values were determined from Scatchard plots [Ann. N.Y. Acad. Sci. 51, 660(1949)]. Non-specific binding was determined as the amount bound in the presence of an excess (2.5 μM) of unlabeled PGE2. In the experiment for competition of specific [^3H]-PGE2 binding assay, [^3H]-PGE2 was added at a concentration of 2.5 nM and a test compound of the present invention was added at various concentrations. The following buffer was used in all reactions.
(§5) Buffer: 10 mM potassium phosphate (pH 6.0), 1 mM EDTA, 10 mM MgCl2, 0.1 M NaCl.
(§6) The inhibition constant (Ki) (μM) of each compound was calculated by the following equation.

The next assay has as its target T2, EP2 receptor (Mus musculus, UniProt Q62053).
T2 construct: expressed in transfected cells; host or cells: CHO cells
To be noted: mouse EP2, [3H]-PGE2 2.5 nM, pH 6.0. As to the method: as §1, §2, §3, §4, §5, §6

The target of a further assay is T3, EP3 receptor (Mus musculus, UniProt P30557).
T3 construct: expressed in transfected cells; host or cells: CHO cells
T3 sequence (P30557 1-365): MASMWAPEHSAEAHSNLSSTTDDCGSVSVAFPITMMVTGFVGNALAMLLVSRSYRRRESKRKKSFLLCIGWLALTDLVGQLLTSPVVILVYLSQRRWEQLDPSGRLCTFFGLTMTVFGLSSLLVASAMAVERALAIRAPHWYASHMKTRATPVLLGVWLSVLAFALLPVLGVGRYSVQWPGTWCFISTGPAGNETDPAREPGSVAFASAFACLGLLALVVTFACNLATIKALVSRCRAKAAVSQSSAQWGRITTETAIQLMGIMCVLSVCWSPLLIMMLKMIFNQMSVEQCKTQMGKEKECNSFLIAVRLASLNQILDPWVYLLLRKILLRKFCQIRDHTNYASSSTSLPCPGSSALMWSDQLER
To be noted: mouse EP3α, [3H]-PGE2 2.5 nM, pH 6.0. The method, then: as §1, §2, §3, §4, §5, §6

The next assay deals with T4, EP4 receptor (Mus musculus, UniProt P32240).
T4 construct: expressed in transfected cells; host or cells: CHO cells
To be noted: mouse EP4, [3H]-PGE2 2.5 nM, pH 6.0. As to the method: as §1, §2, §3, §4, §5, §6

T2 sequence (Q62053 whole entry): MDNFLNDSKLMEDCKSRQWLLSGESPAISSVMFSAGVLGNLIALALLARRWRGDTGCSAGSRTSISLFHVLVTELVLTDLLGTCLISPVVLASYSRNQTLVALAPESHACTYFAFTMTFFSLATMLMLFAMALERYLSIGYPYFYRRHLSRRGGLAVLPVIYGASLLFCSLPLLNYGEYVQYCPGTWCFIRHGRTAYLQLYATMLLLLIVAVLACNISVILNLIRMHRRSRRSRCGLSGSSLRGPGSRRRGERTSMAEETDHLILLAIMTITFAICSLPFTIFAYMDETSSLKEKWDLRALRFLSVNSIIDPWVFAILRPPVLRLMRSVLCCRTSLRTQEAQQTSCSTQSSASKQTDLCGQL
T4 sequence (P32240 whole entry): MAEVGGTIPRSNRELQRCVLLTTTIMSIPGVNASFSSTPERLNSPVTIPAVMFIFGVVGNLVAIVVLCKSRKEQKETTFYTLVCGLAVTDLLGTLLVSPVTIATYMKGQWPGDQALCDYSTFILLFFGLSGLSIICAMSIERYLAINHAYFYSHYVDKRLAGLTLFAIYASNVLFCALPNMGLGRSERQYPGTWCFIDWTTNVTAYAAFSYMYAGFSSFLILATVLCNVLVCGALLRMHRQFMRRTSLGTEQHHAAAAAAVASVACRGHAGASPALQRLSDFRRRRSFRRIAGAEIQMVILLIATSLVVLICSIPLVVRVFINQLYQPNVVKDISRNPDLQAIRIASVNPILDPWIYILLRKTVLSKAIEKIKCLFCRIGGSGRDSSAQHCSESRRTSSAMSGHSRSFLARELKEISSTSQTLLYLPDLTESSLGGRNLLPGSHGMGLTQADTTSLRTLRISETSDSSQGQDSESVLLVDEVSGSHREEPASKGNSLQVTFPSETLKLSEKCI

On to `CC(C(=O)Nc1ccccc1Cc1ccccc1C(=O)O)c1ccc(OCc2ccccc2)cc1` (stereo not shown) [2(1), 2-[2-[2-(4-Benzyloxyphenyl)propanoylamino]phenyl]methylbenzoic Acid], for which the Ki worked out at 1.5 µM at EP1 receptor, 8 µM at EP2 receptor, 0.06 µM at EP3 receptor and 0.01 µM at EP4 receptor.
